Reference: PubChem BioAssay (NCI)
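A five-concentration, 48-hour dose response in 96-well plates underlies each endpoint, interpolated linearly between surrounding concentrations. At the TGI there is no net growth.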

Assays:
Test in all cases: DTP human tumour cell line panel, 48 h
M19-MEL melanoma = test system: M19-MEL melanoma
DMS 273 small cell lung = test system: DMS 273 small cell lung
HT29 colon = test system: HT29 colon
DLD-1 colon = test system: DLD-1 colon
SR leukemia = test system: SR leukemia
786-0 renal = test system: 786-0 renal
UO-31 renal = test system: UO-31 renal
KM20L2 colon = test system: KM20L2 colon
HOP-18 NSCLC = test system: HOP-18 NSCLC
OVCAR-8 ovarian = test system: OVCAR-8 ovarian
LXFL 529 NSCLC = test system: LXFL 529 NSCLC
SNB-78 CNS = test system: SNB-78 CNS
KM12 colon = test system: KM12 colon
XF 498 CNS = test system: XF 498 CNS
RXF-631 renal = test system: RXF-631 renal
DMS 114 small cell lung = test system: DMS 114 small cell lung
OVCAR-4 ovarian = test system: OVCAR-4 ovarian
HS 578T breast = test system: HS 578T breast

SMILES | TGI (M19-MEL melanoma) [µM] | TGI (DMS 273 small cell lung) [µM] | TGI (HT29 colon) [µM] | TGI (DLD-1 colon) [µM] | TGI (SR leukemia) [µM] | TGI (786-0 renal) [µM] | TGI (UO-31 renal) [µM] | TGI (KM20L2 colon) [µM] | TGI (HOP-18 NSCLC) [µM] | TGI (OVCAR-8 ovarian) [µM] | TGI (LXFL 529 NSCLC) [µM] | TGI (SNB-78 CNS) [µM] | TGI (KM12 colon) [µM] | TGI (XF 498 CNS) [µM] | TGI (RXF-631 renal) [µM] | TGI (DMS 114 small cell lung) [µM] | TGI (OVCAR-4 ovarian) [µM] | TGI (HS 578T breast) [µM]
O=C(O)CN1CCSc2ccccc2CN(CC(=O)O)CCSc2ccccc2C1 | > 100 | > 100 | > 100 | > 100 | 84.5 | > 100 | > 100 | > 100 | > 100 | > 100 | > 100 | > 100 | > 100 | – | – | – | – | –
N/N=c1/nc2n(c3ncccc13)C=CNN2 | – | > 100 | > 100 | > 100 | > 100 | > 100 | – | > 100 | – | > 100 | > 100 | – | > 100 | > 100 | > 100 | > 100 | – | –
CCN(CC)C(=O)CCn1ccc(=O)[nH]c1=O | > 100 | > 100 | > 100 | – | > 100 | > 100 | > 100 | > 100 | – | > 100 | > 100 | > 100 | > 100 | > 100 | – | > 100 | > 100 | –
O=C(Cc1ccccc1)NN1C(=O)C(Cl)C1c1ccc(Cl)cc1 (stereo not given) | – | > 100 | > 100 | > 100 | > 100 | > 100 | > 100 | > 100 | > 100 | > 100 | > 100 | > 100 | > 100 | > 100 | – | > 100 | > 100 | –
C=C(Br)C(C)(Cl)CCC(Br)C(C)(C)Br (stereo not given) | > 100 | > 100 | > 100 | > 100 | 51.9 | > 100 | > 100 | – | > 100 | > 100 | > 100 | > 100 | > 100 | – | – | 76 | > 100 | –
CC(C)=CCC[C@@H](C)[C@H]1CC[C@@]2(C)[C@@H]3CC[C@H]4C(C)(C)[C@@H](O)CC[C@@]45C[C@@]35CC[C@]12C | – | – | > 100 | – | > 67.1 | > 61.6 | > 66.2 | – | – | 42.6 | – | – | > 100 | – | – | – | > 100 | > 100
CC1(OCc2ccccc2)C(=O)N2C1NCC2(C)C (stereo not given) | > 100 | > 100 | > 100 | > 100 | > 100 | > 100 | > 100 | > 100 | – | > 100 | > 100 | – | – | > 100 | > 100 | > 100 | > 100 | –
C=CCN1C(=O)CC2[C@@H]3CCc4cc(O)ccc4C3CC[C@]2(C)C1=O (stereo not given in full) | – | – | > 10 | – | > 10 | > 10 | > 10 | – | – | > 10 | – | – | > 10 | – | – | – | > 10 | > 10
Cc1ccc(S(=O)(=O)n2cc(/C=C/C#N)c(-c3cn(S(=O)(=O)c4ccc(C)cc4)cc3-c3cn(S(=O)(=O)c4ccc(C)cc4)cc3/C=C/C#N)c2)cc1 | – | – | > 100 | – | > 100 | > 100 | > 100 | – | – | > 100 | – | – | > 100 | – | – | – | > 100 | > 100
CC(C)(C)C(=O)/C=C(\OB(F)F)C(C)(C)C | – | – | > 100 | – | > 100 | > 100 | > 100 | – | – | > 100 | – | – | > 100 | – | – | – | > 100 | > 100
O=C(CNc1ccccc1[N+](=O)[O-])Nn1cnc2ccc(S(=O)(=O)Nc3ccccc3[N+](=O)[O-])cc2c1=O | – | – | > 100 | – | > 100 | > 100 | > 100 | – | – | > 100 | – | – | > 100 | – | – | – | > 100 | > 100
CCCCNC(=O)OCCN=c1c2ccccc2ccc2ccccc12 | – | – | > 100 | – | > 100 | > 100 | > 100 | – | – | > 100 | – | – | > 100 | – | – | – | > 100 | > 100
COc1cc(CN=c2nc(N(C)C)ss2)cc(OC)c1OC | – | – | > 10 | – | 3.38 | > 5.44 | > 10 | – | – | > 8.92 | – | – | > 10 | – | – | – | > 10 | > 10
CN(C)c1cccc(-c2cc(=S)c3cc4c(cc3[nH]2)OCO4)c1 | – | – | 24.7 | – | > 100 | > 100 | > 100 | – | – | > 100 | – | – | > 100 | – | – | – | > 100 | > 100
CN(Cc1cnc2nc(N)nc(N)c2n1)c1ccc(C(=O)NCCCS(=O)(=O)O)cc1 | – | – | > 100 | – | > 100 | > 100 | > 100 | – | – | > 100 | – | – | > 100 | – | – | – | > 100 | > 100
O=C1Cc2c(-c3cccs3)cc(-c3ccccc3)nc2-c2ccccc2N1 | – | – | 43.9 | – | > 100 | > 100 | > 100 | – | – | 17.1 | – | – | > 100 | – | – | – | > 100 | 17.2
CC(C#N)(c1ccccc1)N(CCc1ccccc1)C(=O)Oc1ccccc1 (stereo not given) | – | – | > 100 | – | > 100 | > 100 | > 100 | – | – | > 100 | – | – | > 100 | – | – | – | > 100 | > 100
Clc1ccc(OCC2NC3CCC2CC3)cn1 (stereo not given) | – | – | 33.3 | – | 44.6 | 36.7 | 6.06 | – | – | > 100 | – | – | 35.3 | – | – | – | > 100 | > 100
CCOC(=O)c1nc2ccccc2nc1Oc1cc(OC)cc(OC)c1 | – | – | > 100 | – | > 100 | > 100 | > 100 | – | – | > 100 | – | – | > 100 | – | – | – | > 100 | > 100
COc1ccc(N2C(=O)c3cc([N+](=O)[O-])cnc3S2(=O)=O)cc1 | – | – | > 100 | – | > 100 | > 100 | > 100 | – | – | > 100 | – | – | > 100 | – | – | – | > 100 | > 100
CN1CCN(Cn2nc(COc3ccccc3Cl)n(/N=C/c3ccc(-c4ccc(Cl)cc4Cl)o3)c2=S)CC1 | – | – | 42.9 | – | 51.8 | 32.8 | > 100 | – | – | 79.3 | – | – | 42.1 | – | – | – | 45.2 | > 100
COc1ccc2c(O)c(Oc3ccc(Cl)cc3)c(=O)oc2c1 | – | – | > 100 | – | > 100 | > 100 | > 100 | – | – | > 100 | – | – | > 100 | – | – | – | > 100 | > 100
CN1CCN(c2cc3[nH]c4cc(O)cc(O)c4c(=O)c3cc2N)CC1 | – | – | 63.6 | – | 21 | > 100 | 67.3 | – | – | > 100 | – | – | 71.7 | – | – | – | 69.5 | > 100
Cc1ccc2c(c1C)C(=O)C1(C2)Cc2ccc3c(c2C1=O)CCC3 (stereo not given) | – | – | > 100 | – | > 100 | > 100 | > 100 | – | – | > 100 | – | – | > 100 | – | – | – | > 100 | > 100
CC1=C(O)C(=O)C=C2C1=CC=C1[C@@]2(C)CC[C@@]2(C)C3C[C@@H](C)C(=O)[C@@H](O)[C@]3(C)CC[C@]12C (stereo not given in full) | – | – | 3.79 | – | 1.3 | 2.36 | 3.53 | – | – | 5.47 | – | – | 19.6 | – | – | – | 11 | > 84.8
O=C1C2C3C4C1C1C2[C@H](OCc2ccccc2)C3C1[C@H]4OCc1ccccc1 (stereo not given in full) | – | – | 32.7 | – | > 100 | > 100 | > 100 | – | – | > 100 | – | – | > 100 | – | – | – | > 100 | 60.4
O=C1c2ccccc2C(=O)N1/N=C1/SC(=Nc2ccccc2)C(=Nc2ccccc2)N1c1ccccc1 | – | – | > 100 | – | > 31.6 | > 41.7 | > 100 | – | – | > 75.9 | – | – | > 100 | – | – | – | > 100 | > 100
